Measured values taken from US20210045381A1, “FORMULATIONS” (priority 2018, published 2021).

Test: Release of pesticide from 3-D printed binary solid objects in a stirred dissolution basket
Type: physicochemical
Conditions: for Percentage Release, Water - after 720 min.: from binary solid object T7 (T3 + T4, no surfactant); for Percentage Release, Water - after 720 min. / Percentage Release, Water - after 30 min.: into water; for Percentage Release, S1 - after 30 min. / Percentage Release, S2 - after 30 min.: from binary solid object T7; for Percentage Release, S1 - after 30 min.: into S1 = water with 0.5% w/w Agnique FOH 90C-20; for Percentage Release, S2 - after 30 min.: into S2 = water with 0.5% w/w Agnique FOH 90C-20 and 1% Tween 80
Experimental: This Example illustrates a binary (two-sectioned) extruded solid object displaying both slow and fast release. The release of pesticide from the 3-D printed binary solid object T7 of Example 2 (containing T3 and T4) was measured. In each experiment three T7 solid objects were added to a dissolution basket which was stirred at 30 rpm. Release was measured into water; into water containing a commercially available surfactant (S1); and into water with two different types of commercially available surfactant (S2). […] Binary solid object T7 released 64% of the pesticide in 720 minutes. The release of the fungicide azoxystrobin in the same time period was only 27%; this was slow release. Release rates into the two surfactant containing media were faster for both pesticides. S1 contained water with 0.5% w/w of Agnique®FOH 90C-20 whereas S2 contained water with 0.5% w/w Agnique®FOH 90C-20 and 1% Tween® 80. Tween® 80 is a non-ionic surfactant: polyoxyethylene (20) sorbitan monooleate.
This Example illustrates the effect of a surfactant of the release profile of a binary (two-sectioned) extruded solid object. Similarly to Example 3, the releases of pesticides from the 3-D printed binary solid object T8 of Example 2 (containing T5 and T6) were measured; three solid objects T8 were added to a dissolution basket which was stirred at 30 rpm. […] Furthermore, compared to solid object T7 releasing fomesafen into water which already contains a high concentration of the same surfactant (S1 of Example 2), the release from T8 (the formulation with built-in surfactant) was considerably faster (78% versus 39.3% [S1]). […] Similar to the case for fomesafen we also see that the T8 azoxystrobin section (with built-in surfactant) released considerably more of the azoxystrobin than the T7 (surfactant free) solid object releasing into a surfactant solution (37% versus 28.9%).

[1] = from binary solid object T7 (sections T3 + T4, no surfactant), three objects, basket stirred at 30 rpm, 30 min
[2] = from binary solid object T7 into water, 720 min
[3] = from binary solid object T8 (fomesafen section T5, azoxystrobin section T6, both with built-in alkyl ethoxylate surfactant), 30 rpm, 30 min

Row | SMILES | Increase of release rate from T8 compared to T7 (factor, water, 30 min, T8 (with surfactant) versus T7 (no surfactant)) | Percentage Release, Water - after 720 min. (30 rpm, 720 min) [%] | Percentage Release, Water - after 30 min. [1] [%] | Percentage Release, S1 - after 30 min. (30 rpm, 30 min) [%] | Percentage Release, S2 - after 30 min. (30 rpm, 30 min) [%] | Release profile (in words) [2] | Percentage Release, Water - after 30 min. [3] [%] | Release profile (in words) (from binary solid object T8 into water, 30 min)
1 | CS(=O)(=O)NC(=O)c1cc(Oc2ccc(C(F)(F)F)cc2Cl)ccc1[N+](=O)[O-] [Fomesafen] | three | 64 | 23.6 | 39.3 | 45.9 | fast release | 78 | fast release
2 | CO/C=C(/C(=O)OC)c1ccccc1Oc1cc(Oc2ccccc2C#N)ncn1 [Azoxystrobin] | – | 27 | 15.6 | 28.9 | 48.3 | slow release | 37 | –
